Measured values: patent US20070116743A1, “Dietary supplement enhancing the muscular energy metabolism, comprising an alkanoyl carnitine and ribose” (Sigma-Tau Industrie Farmaceutiche Riunite S.p.A., priority 2000, published 2007)

Legend:
[1] = test system: ventricular arrhythmias induced by left coronary ligation in the rat; test: Experimental myocardial anoxia test: ventricular arrhythmias induced by left coronary ligation; assay type: in vivo; conditions: for N. of ectopic contractions during 30 minutes after ligation / Start of arrhythmias after: rat, left coronary ligation, slow injection into left ventricle 15 minutes before ligation (100 mg/kg each agent; carnitine combination 25 mg/kg per component); for Reduction in number of ectopic contractions compared to controls (in words): summary of Table 2
Source text: Experimental Myocardial Anoxia Test
Adopting the technique described by Selych (Selych et al., Angiology, 11, 398, 1960) and modified by Clark (Clark C., J. Pharmacol. Methods, 3, 357, 1980), these tests were used to evaluate the protective activity of isovaleryl L-carnitine, propionyl L-carnitine, carnitine combination, ribose and various combinations of the same against ventricular arrhythmias induced by left coronary ligation in the rat.
Coronary occlusion and the resulting myocardial anoxia lead, after 5-8 minutes, to the onset of arrhythmias. In these tests, ventricular ectopic contractions were counted for a period of 30 minutes after ligation both in control rats and in rats that had received slow injections into the left ventricle, 15 minutes before ligation, of a solution containing isovaleryl L-carnitine alone (100 mg/kg), propionyl L-carnitine alone (100 mg/kg), or carnitine combination alone consisting of propionyl L-carnitne (25 mg/kg), acetyl L-carnitine (25 mg/kg) and isovaleryl L-carnitine (25 mg/kg) or ribose alone (100 mg/kg), or a combination of ribose plus isovaleryl L-carnitine or propionyl L-carnitine or a combination of ribose plus carnitine combination at the doses described above.

[2] = test system: papillary muscle of rabbit heart; test: Test of ATP concentrations in papillary muscle of heart subjected to anoxia; assay type: in vivo, New Zealand rabbits; conditions: summary of Table 1
Source text: Test of ATP Concentrations in Heart Subjected to Anoxia In this test the technique adopted was the one using papillary muscle of rabbit heart perfused and subjected to anoxia which, as is known, leads to an impoverishment of its ATP energy reserves. […] At the end of the third day of treatment, all the animals were sacrificed and their hearts excised. Sections of papillary muscle measuring 1 mm in diameter and 4-5 mm in thickness were isolated from the excised hearts. The isolated papillary muscle was perfused in a thermostatic bath with a saturated 100% O2 solution. The anoxic state was obtained by introducing 100% N2 instead of O2 into the bath. For the measurement of the ATP concentrations in the […] muscle the method described by […] was adopted ([…]. Methods in Enzymology 111 N.Y. Acad. Press., 879, 1957).

Compound | N. of ectopic contractions during 30 minutes after ligation [1] | Start of arrhythmias after [1] [min] | Reduction in number of ectopic contractions compared to controls (in words) [1] | Protection of ATP in papillary muscle against anoxia (in words) [2]
CC(C)CC(=O)O[C@H](CC(=O)[O-])C[N+](C)(C)C [Isovaleryl L-carnitine] | 860 ± 75 | 5 to 7 | only slight reductions | partly protecting
CCC(=O)O[C@H](CC(=O)[O-])C[N+](C)(C)C [Propionyl L-carnitine] | 830 ± 86 | 5 to 8 | only slight reductions | partly protecting
O=C[C@H](O)[C@H](O)[C@H](O)CO [Ribose] | 855 ± 110 | 5 to 7 | only slight reductions | partly protecting
